Where a name gives a salt, the structure may show the parent alone.

One assay has as its target T1, rBSH (recombinant bile salt hydrolase) (Ligilactobacillus salivarius, UniProt J7H3P9).
T1 construct: His-tagged full-length BSH, E. coli host, Ni-NTA purified
T1 sequence (J7H3P9 2-324): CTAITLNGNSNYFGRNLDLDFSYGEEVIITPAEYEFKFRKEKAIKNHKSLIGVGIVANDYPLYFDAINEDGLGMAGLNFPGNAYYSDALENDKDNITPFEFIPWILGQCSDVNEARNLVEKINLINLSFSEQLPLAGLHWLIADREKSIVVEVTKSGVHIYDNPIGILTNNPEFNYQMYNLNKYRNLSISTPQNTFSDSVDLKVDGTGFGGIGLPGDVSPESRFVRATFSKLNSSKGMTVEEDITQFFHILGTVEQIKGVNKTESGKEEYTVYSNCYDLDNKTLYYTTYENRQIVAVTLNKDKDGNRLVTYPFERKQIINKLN
In words: two-step assay, amino acid release. The assay is classed as biochemical. Particulars: 37 C.
Take `C[C@H](CCC(=O)NCC(=O)O)[C@H]1CC[C@H]2[C@@H]3[C@H](O)C[C@@H]4C[C@H](O)CC[C@]4(C)[C@H]3C[C@H](O)[C@]12C` [sodium glycocholate]: the “two-step assay, amino acid release” value is given as “ascertain the amount of liberated amino acids from sodium glycocholate”.

A further assay deals with T1, rBSH (recombinant bile salt hydrolase). Kind of assay: two-step BSH assay, amino acid released from glycocholate. The assay is classed as biochemical.
Details: not given
An excerpt:
two-step BSH assay, amino acid released from glycocholate on rBSH (recombinant bile salt hydrolase)
For `O=C(/C=C/c1ccc(O)c(O)c1)OCCc1ccccc1` [Caffeic Acid Phenethyl Ester], the inhibition at 5000 µM amounted to 99.7%.
On the same count and under the same terms, under `CC(C)c1cc2c(c(O)c1O)[C@@]1(C(=O)O)CCCC(C)(C)[C@@H]1CC2` [Carnosic Acid] stands 96.8%; under `CC1=C(C(=O)O)N2C(=O)[C@@H](NC(=O)[C@H](N)C3=CCC=CC3)[C@H]2SC1` [Cephradine], 61.8%; under `Cc1onc(-c2ccccc2Cl)c1C(=O)N[C@@H]1C(=O)N2[C@@H]1SC(C)(C)[C@@H]2C(=O)O` [Cloxacillin], 61.2%.
Turning to `CN(C)[C@@H]1C(O)=C(C(N)=O)C(=O)[C@@]2(O)C(O)=C3C(=O)c4c(O)ccc(Cl)c4[C@@H](O)[C@H]3C[C@@H]12` [Demeclocycline Hydrochloride], the inhibition at 5000 µM is 92%.
Same read-out and setting: under `C[C@H]1c2cccc(O)c2C(O)=C2C(=O)[C@]3(O)C(O)=C(C(N)=O)C(=O)[C@@H](N(C)C)[C@@H]3[C@@H](O)[C@@H]21` [Doxycycline Hydrochloride] stands 92.9%; under `O=C(O[C@@H]1Cc2c(O)cc(O)cc2O[C@@H]1c1ccc(O)c(O)c1)c1cc(O)c(O)c(O)c1` [Epicatechin monogallate], 98.6%; under `CC[C@H]1OC(=O)[C@H](C)[C@@H](O[C@H]2C[C@@](C)(OC)[C@@H](O)[C@H](C)O2)[C@H](C)[C@@H](O[C@@H]2O[C@H](C)C[C@H](N(C)C)[C@H]2O)[C@](C)(O)C[C@@H](C)C(=O)[C@H](C)[C@@H](O)[C@]1(C)O` [Erythromycin], 36.5%.
On the same count and under the same terms, under `O=c1c(O)c(-c2ccc(O)c(O)c2)oc2c(O)c(O)cc(O)c12` [Gossypetin] stands 97.3%.
`CCC[C@@H]1C[C@@H](C(=O)N[C@@H]([C@H]2O[C@H](SC)[C@H](O)[C@@H](O)[C@H]2O)[C@@H](C)O)N(C)C1` [Lincomycin]: the inhibition at 5000 µM turned out to be 67.3%.
On the same count and under the same terms, the result for `CC1=CC(=O)c2ccccc2C1=O` [Menadione] reads 87.2%.
Still for that read-out and setting: under `C=C1c2cccc(O)c2C(=O)C2=C(O)[C@]3(O)C(=O)C(C(N)=O)=C(O)[C@@H](N(C)C)[C@@H]3[C@@H](O)[C@H]12` [Methacycline Hydrochloride] stands 90.2%; under `CN(C)[C@@H]1C(=O)C(C(N)=O)=C(O)[C@@]2(O)C(=O)C3=C(O)c4c(O)cccc4[C@@](C)(O)[C@H]3[C@H](O)[C@@H]12` [Oxytetracycline], 97.4%; under `O=c1c(O)cccc2cc(O)c(O)c(O)c12` [Purpurogallin], 83%.
Turning to `Cc1cc2nc3c(=O)[nH]c(=O)nc-3n(C[C@H](O)[C@H](O)[C@H](O)CO)c2cc1C` [Riboflavin], the inhibition at 1000 µM was 99.3%.
Regarding `Cc1cc(C)nc(NS(=O)(=O)c2ccc(N)cc2)n1` [Sulfamethazine], the inhibition at 5000 µM was 48.7%.
For `CC[C@H]1OC(=O)C[C@@H](O)[C@H](C)[C@@H](O[C@@H]2O[C@H](C)[C@@H](O[C@H]3C[C@@](C)(O)[C@@H](O)[C@H](C)O3)[C@H](N(C)C)[C@H]2O)[C@@H](CC=O)C[C@@H](C)C(=O)/C=C/C(C)=C/[C@@H]1CO[C@@H]1O[C@H](C)[C@@H](O)[C@@H](OC)[C@H]1OC` [Tylosin], the inhibition at 5000 µM was determined as 23.8%.

Staying with this assay, now noted: 5000 µM; sodium glycocholate; 30 min preincubation, 37 C.
Regarding `O=[N+]([O-])c1cc([As](=O)(O)O)ccc1O` [Roxarsone], the “% Inhibition” value is listed as 98.4%.

For a further assay the target is unchanged. In words: microplate precipitation assay, A600. The format is biochemical. Particulars: pH 6.0, 37 C, DTT.
Take `C[C@H](CCC(=O)NCCS(=O)(=O)O)[C@H]1CC[C@H]2[C@@H]3CC[C@@H]4C[C@H](O)CC[C@]4(C)[C@H]3C[C@H](O)[C@]12C` [taurodeoxycholic acid]: the “microplate precipitation assay, A600” value was “taurodeoxycholic acid was better than other tested conjugated bile salts”.

One may read the inhibition as the drop in the measured response relative to a control, in per cent. The term % Inhibition denotes the percentage by which the read-out fell short of the control.
